Laboratory results reported in patent US9814709B2, “Bruton's tyrosine kinase inhibitor” (HEFEI INSTITUTES OF PHYSICAL SCIENCE, CHINESE ACADEMY OF …, priority 2014, dated 2017).

Tests used:
BTK WT protein = target: T1, BTK WT protein (Homo sapiens, UniProt Q06187); test: Btk acellular kinase assay, BTK WT protein purified from transfected 293T cells; assay type: biochemical; details: 100 μM ATP
T1 construct: made in house; host or cells: 293T cells
Experimental: (§1) The BTK wild-type plasmid and the BTK mutant plasmid (C481S) were respectively transfected into 293T cells (purchased from ATCC), and the resultant cells were marked as BTK WT 293T cells and BTK C481S 293T cells, respectively. After cell culture for 2 days, the cells were harvested and purified to give BTK WT and BTK C481S proteins. The compounds of formula (I) were added to the BTK WT and BTK C481S proteins at different concentrations of 3 nM, 10 nM, 30 nM, 100 nM, 300 nM and 1000 nM, respectively, and reacted at room temperature for 30 min, followed by the addition of 100 μM ATP at 37° C. and reacting for 20 min.

BTK C481S protein = target: T2, BTK C481S protein (Homo sapiens, UniProt Q06187, C481S); test: Btk acellular kinase assay, BTK C481S mutant protein purified from transfected 293T cells; assay type: biochemical; details: 3-1000 nM, 100 μM ATP
T2 construct: made in house; host or cells: 293T cells
Experimental: as §1

[1] = tested on: mouse TEL-EGFR-BaF3 (stably expressing TEL-EGFR activated kinase); test: Cell growth, Cell Titer-Glo; assay type: cell-based; details: TEL-EGFR-BaF3, 72 hrs, read-out: Half inhibitory concentration IC50
Source text: (§2) We further assessed the selectivity of Compound 1 to inhibit the proliferation of cancer cells, by testing the effect of Btk inhibitor on the growth of cancer cells. In the example, we used B-lymphoma cell Ramos, cervical cancer cells HeLa, prostate cancer cells DU145, RV-1 and C4-2, colon cancer cells HCT116, blood cancer cells K562, B-cell lymphoma cells U2932, diffuse large B-cell lymphoma cells OCI-LY10, diffuse histiocytic lymphoma cells SU-DHL-2, diffuse large B-cell lymphoma cells TMD8, human non-small cell lung cancer cells H1975 (expressing EGFR L858R/T790M double mutant gene), human lung adenocarcinoma cells A549 (expressing wild-type EGFR gene), human non-small cell lung cancer cells H460 (expressing wild-type EGFR gene), mantel cell lymphoma (MCL) cells Z-138, EB virus infected human peripheral lymphocyte cells JVM-2, MCL cells REC-1, leukemia cells AML-3, acute promyelocytic leukemia cell line NB-4(Lu+), MDS-RAEB (myelodysplastic syndrome-excessive blasts) cell line SKM-1 human leukemia cell Nomo-1, human B-cell leukemia cell line NALM6, human leukocyte leukemia cells HEL, human T-cell lymphoma cells PF-382, acute myelocytic leukemia (AML) cell line MOLM14, AML cell line MOLM13, human Burkitt's lymphoma cells Namalwa, mouse pro-B cells BaF3, all of where were purchased from ATCC. Also used were mouse TEL-EGFR-BaF3 (stably expressing TEL-EGFR activated kinase), mouse TEL-EGFR/T790-BaF3 cells (stably expressing TEL-EGFR-T790M activated mutant kinase), mouse TEL-EGFR/L858R-BaF3 cells (stably expressing TEL-EGFR-L858R activated mutant kinase), mouse TEL-EGFR/T790/L858R-BaF3 (stably expressing TEL-EGFR-T790M/L858R activated mutant kinase), mouse TEL-BMX-BaF3 cells (stably expressing TEL-BMX activated kinase), mouse TEL-JAK1-BaF3 cells (stably expressing TEL-JAK1 activated kinase), mouse TEL-JAK2-BaF3 cells (stably expressing TEL-JAK2 activated kinase), mouse TEL-JAK3-BaF3 cells (stably expressing TEL-JAK3 activated kinase), where were all established by our laboratory via the following method: the kinase domain sequences of human EGFR, BMX, JAK1, JAK2, JAK3 were amplified respectively by PCR, and these kinase were inserted into the MSCV-Puro vectors with N-terminal TEL segment (Clontech); if there was a mutation, the mutation of the corresponding site was conducted by Site-Directed Mutagenesis kit (Stratagene); the resultants were stably transfected into mouse BaF3 cells by the means of retrovirus, and the IL-3 growth factors were removed, and eventually the EGFR, BMX, JAK1, JAK2, JAK3-transferred protein dependent cell lines were obtained.
(§3) In the example, different concentrations (0.000508 μM, 0.00152 μM, 0.00457 μM, 0.0137 μM, 0.0411 μM, 0.123 μM, 0.370 μM, 1.11 μM, 3.33 μM, 10 μM) of Compound 1 and Compound 19 were added into above cells, and were incubated for 72 hrs. The number of viable cells was determined by quantitating ATP in viable cells using Cell Titer-Glo® (Promega, U.S.) chemiluminescence cell viability assay kit.

[2] = tested on: mouse TEL-EGFR/T790-BaF3 cells (stably expressing TEL-EGFR-T790M activated mutant kinase); test: Cell growth, Cell Titer-Glo; assay type: cell-based; details: TEL-EGFR/T790-BaF3, 72 hrs, read-out: Half inhibitory concentration IC50
Source text: as §2, §3

[3] = tested on: SD rat adjuvant arthritis (AA) model; test: SD rat adjuvant arthritis (AA) model, arthritis index; assay type: in vivo
Experimental: In this example, SD rat adjuvant arthritis (AA) model (purchased from the Experimental Animal Center of Anhui Province) was used. PCI-32765 and methotrexate (MTX) were used as positive control (both purchased from Shanghai Chemexpress). The therapeutic effect of Compound 1 on AA rats was studied via the combination of in vivo and in vitro administration. 10 mg/nal of complete Freund's adjuvant (CFA, purchased from Shanghai Chemexpress) was mixed well, and 0.1 ml of CFA was intracutaneously injected into each rat at right posterior plantar to induce inflammation. The normal group was injected with saline via the same method. On the 17th day, the successful modeling male SD rats were randomly divided into 7 groups with 10 rats in each group, namely the model group, the small/medium/large dose of Compound 1 group (12.5, 25, 50 mg/kg/per administration, intraperitoneal injection, one administration per day for 16 days), the Compound 19 group (25 mg/kg/per administration, intraperitoneal injection, one administration per day for 16 days), the positive control PCI-32765 group (25 mg/kg/per administration, intraperitoneal injection, one administration per day for 16 days), the MTX group (0.5 mg/kg, intragastrical, one administration every 3 days, totally 6 times). The rats in the model group were intraperitoneally injected with the same amount of DMSO solution.

BTK = BTK (Homo sapiens, UniProt Q06187); test: Phosphorylation of BTK in IL2-stimulated PBMC, Western Blot; assay type: cell-based; set-up: endogenous in cells; host or cells: human peripheral blood mononuclear cells (PBMC); details: 3.5 hours, then 20 ng/mL IL2 30 min
Experimental: In order to test the effect of Compound 1 on human cells, a peripheral blood mononuclear cell (PBMC) culture system with BTK signal being activated by in vitro stimulation was introduced. The phenomena occurred in the clinical patients were simulated by stimulating PBMC of a normal human with IL2 to activate the BTK signal. PBMC cells were seeded in 6-well plate and Compound 1 of different concentrations (0, 0.01, 0.1, 1 μM), 1 μM of PCI-32765 and 1 μM of Compound 19 were added; 3.5 hours later after the administration, the samples were stimulated with 20 ng/ML IL2 for 30 min and then were collected. Western Blot assay was performed. […] The negative control Compound 19 had no effect on the phosphorylation of BTK.

Chain of BTK (Q06187 whole entry): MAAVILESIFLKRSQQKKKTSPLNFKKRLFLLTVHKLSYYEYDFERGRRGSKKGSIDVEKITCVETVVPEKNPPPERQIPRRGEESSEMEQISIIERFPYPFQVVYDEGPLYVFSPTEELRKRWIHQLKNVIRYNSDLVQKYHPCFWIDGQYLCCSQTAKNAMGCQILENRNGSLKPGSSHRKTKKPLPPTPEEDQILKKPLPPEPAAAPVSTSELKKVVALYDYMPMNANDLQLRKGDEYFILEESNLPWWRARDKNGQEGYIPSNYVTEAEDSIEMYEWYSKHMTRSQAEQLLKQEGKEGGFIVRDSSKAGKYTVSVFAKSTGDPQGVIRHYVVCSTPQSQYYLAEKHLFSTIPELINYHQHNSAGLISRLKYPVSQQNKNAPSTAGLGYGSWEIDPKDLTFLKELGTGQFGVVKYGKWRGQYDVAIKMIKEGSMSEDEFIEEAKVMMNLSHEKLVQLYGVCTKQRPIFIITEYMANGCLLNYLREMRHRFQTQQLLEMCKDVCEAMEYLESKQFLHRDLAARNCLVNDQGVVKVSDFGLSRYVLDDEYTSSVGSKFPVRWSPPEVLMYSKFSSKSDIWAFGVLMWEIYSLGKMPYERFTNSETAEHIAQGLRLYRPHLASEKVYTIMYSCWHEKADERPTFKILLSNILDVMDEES
T1 sequence (Q06187 whole entry): as above
T2 sequence (Q06187 whole entry C481S): as the sequence (Q06187 whole entry) above, with C481S counted along it

Row | SMILES | IC50 (BTK WT protein; 30 min room temperature preincubation, 37° C., 20 min) | inhibitory effect on BTK C481S (BTK C481S protein) | IC50 [1] | IC50 [2] | effect on arthritis index of rats compared with the model group ([3]; 12.5 mg/kg intraperitoneal once per day, starting from day 21) | effect on arthritis index of rats ([3]; 12.5 mg/kg intraperitoneal once per day, starting from day 24) | effect on phosphorylation of BTK in PBMCs (BTK; 1 μM) | effect on phosphorylation of BTK in PBMCs (BTK; 0.01, 0.1, 1 μM, some dose-dependency) | inhibitory effect on BTK WT (BTK WT protein; 3-1000 nM) | effect on the rat arthritis index ([3]; 25 mg/kg intraperitoneal once per day for 16 days)
1 | C=CC(=O)Nc1cc(-n2c(=O)ccc3cnc4ccc(-n5cccn5)cc4c32)ccc1C [Compound 1, N-(2-methyl-5-(2-oxo-9-(1H-pyrazol-1-yl)benzo[H][1,6]naphthyridin-1(2H)-yl)phenyl)acrylamide] | 0.056 µM | no inhibition | 2.66 µM | 0.918 µM | significantly reduced | significantly reduce | comparative to that of the positive control | significantly inhibited |  | 
2 | CCC(=O)Nc1cc(-n2c(=O)ccc3cnc4ccc(-n5cccn5)cc4c32)ccc1C [Compound 19, N-(2-methyl-5-(2-oxo-9-(1H-pyrazol-1-yl)benzo[H][1,6]naphthyridin-1(2H)-yl)phenyl) propionamide] |  | no inhibitory effect | > 10 µM | > 10 µM |  |  | no effect |  | no inhibitory effect | little effect
